According to BigSolDB 2.1:

C1=Cc2cccc3cccc1c23
Details | solubility (mole fraction)
in ethanol, 278.1 K | 0.00462
in ethanol, 283.53 K | 0.00579
in ethanol, 288.25 K | 0.00709
in ethanol, 293.25 K | 0.00891
in ethanol, 298.2 K | 0.0108
in ethanol, 303.2 K | 0.0133
in ethanol, 308.2 K | 0.0165
in ethanol, 313.05 K | 0.0197
in ethanol, 318.25 K | 0.0245
in ethanol, 323.15 K | 0.0296
in isopropanol, 278.3 K | 0.00469
in isopropanol, 283.07 K | 0.00592
in isopropanol, 288.33 K | 0.0077
in isopropanol, 293.2 K | 0.00967
in isopropanol, 298.07 K | 0.012
in isopropanol, 303.3 K | 0.0152
in isopropanol, 308.05 K | 0.0189
in isopropanol, 312.95 K | 0.0236
in isopropanol, 318.4 K | 0.0302
in isopropanol, 323.25 K | 0.0372
in n-butanol, 278.25 K | 0.0101
in n-butanol, 283.05 K | 0.0122
in n-butanol, 288.05 K | 0.0154
in n-butanol, 293.25 K | 0.019
in n-butanol, 298.25 K | 0.0237
in n-butanol, 303.15 K | 0.029
in n-butanol, 308.1 K | 0.0349
in n-butanol, 313.2 K | 0.0427
in n-butanol, 318.05 K | 0.0525
in n-butanol, 323.05 K | 0.0639
in toluene, 278.47 K | 0.104
in toluene, 283.33 K | 0.122
in toluene, 288.1 K | 0.142
in toluene, 293.15 K | 0.167
in toluene, 298.23 K | 0.194
in toluene, 303.15 K | 0.224
in toluene, 307.95 K | 0.256
in toluene, 312.95 K | 0.299
in toluene, 318.3 K | 0.346
in toluene, 323.2 K | 0.398
